Activity calls are given as the source filed them. No cut-off for these calls is given here.
Legend:
Format in all cases: cell-based
[1] = species: Homo sapiens; experiment: Agonist activity at recombinant human GABA-A alpha3beta2gamma2S receptor transiently expressed in human tsA201 cells assessed as GABA-induced maximum response incubated for 30 mins and measured up to 90 secs by FMP dye based FLIPR membrane potential blue assay relative to GABA
[2] = target: Gamma-aminobutyric acid receptor subunit alpha-4/beta-2/gamma-2 (Homo sapiens, UniProt P47870+P18507+P48169); experiment: Agonist activity at recombinant human GABA-A alpha4beta2gamma2S receptor transiently expressed in human tsA201 cells assessed as GABA-induced maximum response incubated for 30 mins and measured up to 90 secs by FMP dye based FLIPR membrane potential blue assay relative to GABA
[3] = target: T1, Sodium- and chloride-dependent GABA transporter 2 (Homo sapiens, UniProt Q9NSD5); experiment: Inhibition of human GAT2 expressed in Flp-In CHO cells assessed as reduction in [3H]GABA uptake incubated for 3 mins by liquid scintillation counting method
T1 sequence (Q9NSD5 whole entry): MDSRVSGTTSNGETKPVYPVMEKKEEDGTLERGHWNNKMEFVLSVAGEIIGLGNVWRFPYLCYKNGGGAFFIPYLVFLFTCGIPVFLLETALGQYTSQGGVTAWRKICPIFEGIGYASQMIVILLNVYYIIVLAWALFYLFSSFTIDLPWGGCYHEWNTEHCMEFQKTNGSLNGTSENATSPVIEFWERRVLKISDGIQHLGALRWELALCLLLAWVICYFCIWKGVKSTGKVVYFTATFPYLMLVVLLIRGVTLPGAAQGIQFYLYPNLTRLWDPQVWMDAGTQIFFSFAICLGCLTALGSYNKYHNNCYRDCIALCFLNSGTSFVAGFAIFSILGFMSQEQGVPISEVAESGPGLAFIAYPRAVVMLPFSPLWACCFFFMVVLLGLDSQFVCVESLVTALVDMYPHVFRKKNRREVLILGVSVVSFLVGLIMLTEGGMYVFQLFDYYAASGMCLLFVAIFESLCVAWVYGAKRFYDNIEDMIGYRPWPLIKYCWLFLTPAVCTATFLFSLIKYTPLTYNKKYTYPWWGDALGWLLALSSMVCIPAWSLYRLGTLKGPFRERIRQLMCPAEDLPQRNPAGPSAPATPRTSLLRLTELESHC

[4] = target: T2, Sodium- and chloride-dependent GABA transporter 3 (Homo sapiens, UniProt P48066); experiment: Inhibition of human GAT3 expressed in Flp-In CHO cells assessed as reduction in [3H]GABA uptake incubated for 3 mins by liquid scintillation counting method
T2 sequence (P48066 whole entry): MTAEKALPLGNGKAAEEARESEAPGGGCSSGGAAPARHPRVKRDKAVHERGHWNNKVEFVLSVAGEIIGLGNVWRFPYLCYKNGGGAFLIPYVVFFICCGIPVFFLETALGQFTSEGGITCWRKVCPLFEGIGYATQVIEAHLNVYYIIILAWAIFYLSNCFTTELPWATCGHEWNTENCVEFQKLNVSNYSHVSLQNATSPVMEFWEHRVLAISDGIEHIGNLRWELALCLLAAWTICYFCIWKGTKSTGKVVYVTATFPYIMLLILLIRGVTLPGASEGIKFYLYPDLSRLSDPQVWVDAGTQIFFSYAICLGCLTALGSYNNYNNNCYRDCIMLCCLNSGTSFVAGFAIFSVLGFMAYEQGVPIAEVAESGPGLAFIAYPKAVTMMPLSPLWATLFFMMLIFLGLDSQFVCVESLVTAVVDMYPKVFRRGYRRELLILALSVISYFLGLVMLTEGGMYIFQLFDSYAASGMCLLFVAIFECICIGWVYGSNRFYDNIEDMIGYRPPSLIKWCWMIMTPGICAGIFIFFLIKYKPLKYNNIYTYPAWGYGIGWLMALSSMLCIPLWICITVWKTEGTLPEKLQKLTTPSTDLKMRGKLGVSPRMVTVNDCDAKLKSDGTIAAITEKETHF

[5] = target: T3, Sodium- and chloride-dependent betaine transporter (Homo sapiens, UniProt P48065); experiment: Inhibition of human BGT1 expressed in Flp-In CHO cells assessed as reduction in [3H]GABA uptake incubated for 3 mins by liquid scintillation counting method
T3 sequence (P48065 whole entry): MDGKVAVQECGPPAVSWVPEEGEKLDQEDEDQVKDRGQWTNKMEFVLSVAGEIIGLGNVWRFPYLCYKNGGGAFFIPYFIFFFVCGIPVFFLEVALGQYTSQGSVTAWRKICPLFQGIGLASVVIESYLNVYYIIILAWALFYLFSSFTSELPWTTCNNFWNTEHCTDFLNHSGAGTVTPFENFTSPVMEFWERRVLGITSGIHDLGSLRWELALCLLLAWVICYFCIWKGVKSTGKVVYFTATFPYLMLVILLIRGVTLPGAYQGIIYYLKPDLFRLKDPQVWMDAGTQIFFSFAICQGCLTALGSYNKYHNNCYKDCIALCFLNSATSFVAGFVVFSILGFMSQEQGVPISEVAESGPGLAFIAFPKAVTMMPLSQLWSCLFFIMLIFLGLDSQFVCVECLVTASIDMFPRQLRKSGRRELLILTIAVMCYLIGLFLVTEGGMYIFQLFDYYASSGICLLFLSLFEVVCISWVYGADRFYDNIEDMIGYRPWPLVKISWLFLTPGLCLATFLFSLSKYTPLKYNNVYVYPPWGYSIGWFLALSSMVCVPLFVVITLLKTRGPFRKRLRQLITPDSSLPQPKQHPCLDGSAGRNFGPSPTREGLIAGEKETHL

[6] = target: T4, Sodium- and chloride-dependent GABA transporter 3 (Homo sapiens) (UniProt P48066); experiment: Inhibition of human GAT3 expressed in Flp-In CHO cells assessed as reduction in [3H]GABA uptake at 100 uM incubated for 3 mins by liquid scintillation counting method relative to control
T4 sequence (whole entry): T2 sequence (P48066 whole entry)

[7] = target: T5, Gamma-aminobutyric acid receptor subunit rho-1 (Homo sapiens, UniProt P24046); experiment: Agonist activity at recombinant human GABA-A rho-1 receptor transiently expressed in human tsA201 cells incubated for 30 mins and measured up to 90 secs by FMP dye based FLIPR membrane potential blue assay
[8] = target: T5, Gamma-aminobutyric acid receptor subunit rho-1; experiment: Agonist activity at recombinant human GABA-A rho-1 receptor transiently expressed in human tsA201 cells assessed as GABA-induced maximum response incubated for 30 mins and measured up to 90 secs by FMP dye based FLIPR membrane potential blue assay relative to GABA

T5 sequence (P24046 whole entry): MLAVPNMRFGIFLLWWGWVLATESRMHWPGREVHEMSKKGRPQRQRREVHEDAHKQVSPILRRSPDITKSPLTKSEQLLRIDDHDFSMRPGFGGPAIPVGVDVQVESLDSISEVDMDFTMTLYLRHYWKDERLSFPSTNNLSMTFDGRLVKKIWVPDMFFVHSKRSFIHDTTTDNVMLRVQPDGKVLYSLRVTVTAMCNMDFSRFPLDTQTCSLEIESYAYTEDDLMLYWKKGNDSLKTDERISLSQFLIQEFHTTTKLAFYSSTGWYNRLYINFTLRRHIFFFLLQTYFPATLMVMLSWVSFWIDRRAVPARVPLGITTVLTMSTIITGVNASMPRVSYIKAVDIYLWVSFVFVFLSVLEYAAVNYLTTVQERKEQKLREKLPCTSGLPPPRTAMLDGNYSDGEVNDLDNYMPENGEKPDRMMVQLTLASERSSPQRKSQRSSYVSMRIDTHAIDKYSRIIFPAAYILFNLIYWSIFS

SMILES	Rmax [2]	IC50 [3] [µM]	IC50 ([4]; read-out: IC50) [µM]	IC50 ([5]; read-out: IC50) [µM]	inhibition [6] [%]	EC50 ([7]; read-out: EC50) [µM]	Rmax [8]	IC50 ([4]; read-out: pIC50 (converted)) [µM]	IC50 ([5]; read-out: pIC50 (converted)) [µM]	EC50 [7]	pEC50 [7]	Rmax [1]
C[C@@H](C(=O)O)[C@H]1CSC(N)=N1 (relative stereo)	inactive	> 100	> 100	> 100	> 30	–	–	–	–	–	–	96%
C[C@@H]1SC(N)=N[C@@H]1CC(=O)O (relative stereo)	inactive	> 100	> 100	> 100	> 30	–	–	–	–	–	–	76%
CC(C(=O)O)C1CSC(N)=N1 (stereo in doubt; l-10a)	–	> 100	> 100	> 100	–	7.4	–	–	–	–	–	–
O=C(O)C[C@H]1CCNC1	94%	7.3	2.3	9.9	> 30	8.4	101%	–	7.94	–	–	102%
O=C(O)C[C@@H]1CCNC1	inactive	16	2.7	5	> 30	–	inactive	–	3.98	Not Active	inactive	inactive
C[C@H]1SC(N)=N[C@@H]1CC(=O)O (relative stereo)	inactive	> 100	> 100	> 100	> 30	–	inactive	–	–	Not Active	inactive	inactive
O=C(O)CC1CNC=N1 (stereo unspecified)	74%	2.9	1.9	7.3	> 30	2.8	45%	–	–	–	–	91%

Further lines, with some results ahead:

Rmax [2]	IC50 [3] [µM]	IC50 ([4]; read-out: IC50) [µM]	IC50 ([5]; read-out: IC50) [µM]	inhibition [6] [%]	EC50 ([7]; read-out: EC50) [µM]	Rmax [8]	IC50 ([4]; read-out: pIC50 (converted)) [µM]	IC50 ([5]; read-out: pIC50 (converted)) [µM]	EC50 [7]	pEC50 [7]	SMILES	Rmax [1]
93%	79.1	151	47.4	> 30	6.5	43%	126	–	–	–	NC1=NC(CC(=O)O)CS1 (stereo unspecified)	95%
inactive	> 100	> 100	> 100	> 30	1.6	35%	–	–	–	–	C[C@@H](C(=O)O)[C@@H]1CSC(N)=N1 (relative stereo)	19%
–	> 100	> 100	> 100	–	1.2	–	–	–	–	–	CC(C(=O)O)C1CSC(N)=N1 (stereo in doubt; l-10b)	–
81%	132	43.7	3	> 30	3.8	64%	–	–	–	–	NC1=NC(CC(=O)O)CN1 (stereo unspecified)	105%
